Experimental findings from EPA's ToxValDB 9.5 are described below.

The term LOAEL denotes the lowest tested level that showed an adverse finding. The NOAEL is the highest dose or exposure tested at which no adverse effect was seen. As usually defined, the LD50 is the dose at which mortality reaches 50%.

For series [1], the system named is Rattus norvegicus.
For series [2], the system named is Oryctolagus sp. The following applies: subchronic; duration: 45 days; inhalation; Hemorrhagic alveoli and congested capillaries the lungs.
Series [3] has as its system Rattus norvegicus. Particulars: for LOAEL: subchronic.
Series [4] concerns Rattus norvegicus. The following applies: for LEL: uterotrophic, Active; for NOEL: Sprague-Dawley.
The subject of series [5] is Mus musculus. The following applies: uterotrophic, Active.
The test system of series [6] is Rattus norvegicus. Particulars: chronic; duration: 2 years; oral; Increased methaemoglobin and sulfhaemoglobin levels.
The subject of series [7] is Canidae. Particulars: oral.
In series [8] the test system is Canidae. The following applies: chronic; oral; diet; M/F; Dog Other; methemoglobin and sulfhemoglobin formation.
Series [9] concerns Mus musculus. Particulars: repeat dose other; oral.
Series [10] deals with Rattus norvegicus. The following applies: acute; oral.
Series [11] has as its system Oryctolagus sp. Particulars: reproduction developmental; duration: 12 days; oral; gavage; M/F; New Zealand; gastrointestinal.
Series [12] relates to Rattus norvegicus. The following applies: subchronic, oral, diet, Fischer 344, Clinical Observation: Diarrhea + Body Weight Changes: decrease(>25000 ) + Hematology: Hct increase, RBC increase, Hgb increase + Blood ….
The mark [13] stands for this setting: reproduction developmental, oral, drinking water, M/F, neurodevelopmental effects.
The mark [14] stands for this setting: duration: 36 days, injection, subcutaneous.
Where [15] appears, read: chronic, duration: 1 years, gavage, M/F, Beagle, Mydriasis and focal neuronal degeneration.
Where [16] appears, read: reproduction developmental, oral, M/F, increased incidence of renal tubular dilation in f3b offspring.
[17] abbreviates: duration: 7 days, injection, subcutaneous.

“And” between values parts separate entries of the source, which are not always exact repeats. Equal entries are not always repeated.

For `[O][Cl+][O-]` [Chlorine dioxide], the LOAEL in series [1] (setting [13]) is 6 mg/kg-day; in series [1] (subchronic, duration: 60 days, inhalation, vascular congestion and peribronchial edema), 2.76 mg/m3; in series [2], 6.9 mg/m3; in series [3] (duration: 2 months, inhalation, unknown, Wistar, respiratory), 2.76 mg/m3. Further, in [1] (setting [13]), the NOAEL turned out to be 3 mg/kg-day.
On to `CC(=O)O[C@]1(C(C)=O)CC[C@H]2[C@@H]3C=C(Cl)C4=CC(=O)[C@@H]5C[C@@H]5[C@]4(C)[C@H]3CC[C@@]21C` [Cyproterone acetate], for which, in [4] (Hershberger, duration: 10 days, oral, gavage, Wistar, active + Negative + Antiandrogenic + anti-androgenic), the LOEL worked out at 0.4 mg/kg-day. For the same compound, the LEL in [4] (setting [14]) is 3 mg and 1 mg/day; in [5] (setting [14]) it was 2 mg and 1 mg/day.
In series [6], `O=C(NC(=O)c1c(F)cccc1F)Nc1ccc(Cl)cc1` [Diflubenzuron] had an NOAEL of 2 mg/kg-day. Further, the NOAEL in series [7] (chronic, duration: 1 years, Dog Other, Increased methaemoglobin and sulfhaemoglobin levels, platelet counts and hepatic pigmentation) amounted to 2 mg/kg-day. Further, in [8], the LEL worked out at 10 mg/kg-day and the NOEL was found to be 2 mg/kg-day.
In series [9], `CCCCCCOC(=O)c1ccccc1C(=O)OCCCCCC` [Dihexyl phthalate] returned an LOAEL of 550 mg/kg-day and an NOAEL of 55 mg/kg-day. In addition, the LD50 in series [10] was 38.9 mg/kg and 29.6 mg/kg.
Regarding `CC(=O)NCC(=O)O.CC(=O)NCC(=O)O.N=C(N)c1ccc(N=NNc2ccc(C(=N)N)cc2)cc1` [Diminazene diaceturate], the LOEL was 60 mg/kg-day in [7] (chronic, duration: 9 months, capsule, M/F, Beagle, Decreased bodyweights, mortality, prostatic malfunction, foci of softening in the brainstem, & testicular atrophy) and 60 mg/kg-day in [7] (duration: 9 months, capsule, M/F, Beagle, Decreased bodyweights, mortality, prostatic malfunction, foci of softening in the brainstem, & testicular atrophy).
The compound `CO[C@H]1C[C@H](O[C@H]2[C@H](C)O[C@@H](O[C@@H]3/C(C)=C/C[C@@H]4C[C@@H](C[C@]5(C=C[C@H](C)[C@@H](C6CCCCC6)O5)O4)OC(=O)[C@@H]4C=C(C)[C@@H](O)[C@H]5OC/C(=C\C=C\[C@@H]3C)[C@]54O)C[C@@H]2OC)O[C@@H](C)[C@@H]1O` [Doramectin] yielded an LOEL in series [7] (duration: 3 months, gavage, M/F, Beagle, Mydriasis) of 0.3 mg/kg-day. Also, the NOEL in series [7] (subchronic, duration: 3 months, gavage, M/F, Dog Other, Mydriasis) worked out at 0.1 mg/kg-day.
Consider `CO[C@H]1C[C@H](O[C@@H]2/C(C)=C\C[C@@H]3C[C@@H](C[C@]4(C=C[C@H](C)[C@@H](C(C)C)O4)O3)OC(=O)[C@@H]3C=C(C)[C@@H](O)[C@H]4OC/C(=C/C=C\[C@@H]2C)[C@]43O)O[C@@H](C)[C@H]1O[C@H]1C[C@@H](OC)[C@H](NC(C)=O)[C@H](C)O1` [Eprinomectin], for which, in [7] (setting [15]), the LOAEL worked out at 2 mg/kg-day and the NOEL stood at 1 mg/kg-day.
In turn, `C=C1C[C@]23C[C@@]1(O)CC[C@H]2[C@@]12C=C[C@H](O)[C@@](C)(C(=O)O1)[C@H]2[C@@H]3C(=O)O` [Gibberellic acid] had an LEL in series [5] (duration: 5 days, injection, subcutaneous) of 0.0001 mg/day.
For the compound `O=C(O)CNCP(=O)(O)O` [Glyphosate], the NOEL is 300 mg/kg-day in series [4] (Hershberger, duration: 10 days, oral, gavage, inactive + Negative + Negative + neither + decrease in AST and liver at 1000 / decrease in bw 10% at 1000 / testosterone dose-dependent …); 10 mg/kg-day in series [1] (setting [16]); 213 mg/kg-day in [12] (F); under 300 mg/kg-day in series [12] (M/F). The LEL in series [1] (setting [16]) stood at 30 mg/kg-day. For the same compound, the NOAEL amounted to 113 mg/kg-day in series [3] (chronic, duration: 24 months, oral, diet, F, albino Sprague Dawley, gastrointestinal); 113 mg/kg-day in series [3] (chronic, duration: 24 months, oral, diet, M/F, albino Sprague Dawley, gastrointestinal); 100 mg/kg-day in [11].
Turning to `C#C[C@]1(O)CC[C@H]2[C@@H]3CCC4=CC(=O)CC[C@@H]4[C@H]3CC[C@@]21C` [Norethindrone], the NOEL in [4] (Hershberger, duration: 10 days, oral, gavage, active + negative + Negative + neither) was 10 mg/kg-day. In addition, the LEL in series [4] (duration: 14 days, injection, subcutaneous) was determined as 2 mg/day; in [4] (duration: 14 days, oral) it was 0.1 mg/day; in [5] (duration: 3 days, oral) it was 0.1 mg/day.
Compound `COC(=O)[C@H]1[C@H]2C[C@@H]3c4[nH]c5cc(OC)ccc5c4CCN3C[C@H]2C[C@@H](OC(=O)c2cc(OC)c(OC)c(OC)c2)[C@@H]1OC` [Reserpine] yielded an LEL in series [5] (setting [17]) of 3 mg/kg-day.
In series [9], `CC(=O)[O-].CC(=O)[O-].[O]=[U+2]=[O]` [Uranyl acetate] displayed an LOAEL of 6.13 mg/kg-day and an NOAEL of 3.07 mg/kg-day.
Take `ClC1C(Cl)C(Cl)C(Cl)C(Cl)C1Cl` (stereo not drawn) [beta-Hexachlorocyclohexane]: the LEL stood at 3 mg/kg-day in series [4] (duration: 3 days, oral) and 100 mg/kg-day in series [5] (duration: 3 days, injection, intraperitoneal). This compound also returned an NOAEL in series [3] (short-term, duration: 2 weeks, oral, diet, M/F, Wistar, neurological) of 8 mg/kg-day. This compound also had an LOAEL in series [3] (duration: 13 weeks, oral, diet, M/F, Wistar, hepatic) of 0.18 mg/kg-day.
On to `Clc1ccc(C(c2ccccc2Cl)C(Cl)(Cl)Cl)cc1` (centres undefined) [o,p'-DDT], for which the LEL in series [4] (duration: 0.25 days, injection, subcutaneous) turned out to be 10 mg/day; in series [4] (duration: 1 days, oral) it was 300 mg/kg-day; in series [4] (duration: 2 days, injection, intraperitoneal) it was 4 mg; in series [4] (duration: 2 days, injection, subcutaneous) it was 4 mg; in [4] (duration: 3 days, oral, diet) it was 250 ppm; in [4] (duration: 7 days, injection, intraperitoneal) it was 10 mg/day. Further, the LEL in series [4] (setting [17]) is 50 mg/kg-day and 100 mg/kg-day; in series [4] (duration: 7 days, oral), 50 mg/kg-day; in [4] (duration: 7 days, oral, diet), 500 ppm; in series [4] (duration: 8 days, oral, diet), 500 ppm; in [4] (duration: 27 days, injection, intraperitoneal) it was 0.5 mg/day; in series [5] (duration: 1 days, oral), 375 mg/kg-day and 300 mg/kg-day. In series [5] (duration: 3 days, oral), this compound yielded an LEL of 30 mg/kg-day.
